Assays:
[1] = microbe, parasite or virus in culture; conditions: Mycobacterium tuberculosis, 96 h, read-out: pIC50 (converted)
[2] = microbe, parasite or virus in culture; conditions: Mycobacterium tuberculosis, 72 h, read-out: pIC50 (converted)

## O=C(OCCNc1ncccn1)c1ccc(Br)s1
[1]
  IC50: 29.8 µM
[2]
  IC50: > 50.1 µM

## O=C(CN1CCNCC1)NCCSc1ccc(Cl)cc1
[1]
  IC50: 110 µM
[2]
  IC50: 177 µM

## Cc1ccccc1OCCCNC(=O)NC[C@@H](C)O
[1]
  IC50: > 501 µM
[2]
  IC50: > 501 µM

## c1ccc(C2=NN=C(NC3CC3)SC2)cc1
[1]
  IC50: 140 µM
[2]
  IC50: 230 µM

## c1cc2c(cc1CNc1nnc(C3CC3)o1)OCCO2
[1]
  IC50: 179 µM
[2]
  IC50: 151 µM

## COCCC1(CNC(=O)NCC2CCCS2)CCCC1 (configuration not stated)
[1]
  IC50: > 50.1 µM
[2]
  IC50: > 50.1 µM

## CN(C)C(=O)CSCC(=O)NCc1ccc(Cl)cc1
[1]
  IC50: > 501 µM
[2]
  IC50: 86.8 µM

## CC(=O)c1cc(C(=O)NCCSC(F)(F)F)[nH]n1
[1]
  IC50: 79.5 µM
[2]
  IC50: 274 µM

## CNC(=O)CSCc1nc(-c2ccccc2C)no1
[1]
  IC50: 156 µM
[2]
  IC50: 134 µM

## FC(F)COCCn1nnc(-c2ccsc2)n1
[1]
  IC50: 56.4 µM
[2]
  IC50: 255 µM

## CCS(=O)(=O)NCCOc1ccc2c(c1)OCO2
[1]
  IC50: 204 µM
[2]
  IC50: 230 µM

## CC(C)c1cc(C(=O)N[C@@H]2CCOC[C@H]2O)cs1
[1]
  IC50: > 501 µM
[2]
  IC50: > 501 µM

## O=C(Nc1ccccn1)c1csc(NC2CCCC2)n1
[1]
  IC50: 26.1 µM
[2]
  IC50: 46.7 µM

## Cc1cc(C)c(C#N)c(N2CCC(Cc3ccccc3)CC2)n1
[1]
  IC50: > 50.1 µM
[2]
  IC50: > 50.1 µM

## CC(C)c1nc(CSc2nnc(-c3cccs3)n2CC(N)=O)no1
[1]
  IC50: > 50.1 µM
[2]
  IC50: 30.9 µM

## CCOc1cc(C(=O)NCCCOC(C)C)ccn1
[1]
  IC50: 137 µM
[2]
  IC50: 87.9 µM

## CN1CCC(N(C)CCC(=O)N2CCC(Cc3ccc(F)cc3)CC2)C1 (configuration not stated)
[1]
  IC50: > 50.1 µM
[2]
  IC50: 22 µM

## Cc1ccc(S(=O)(=O)NCCN)cc1C(F)(F)F
[1]
  IC50: > 501 µM
[2]
  IC50: 102 µM

## Cc1nc(CN(C)C(=O)c2nc(C(C)C)cs2)no1
[1]
  IC50: 5.83 µM
[2]
  IC50: 71.2 µM

## Cc1cc(=O)[nH]c(SC(C)C(=O)N2CCC(NS(C)(=O)=O)CC2)n1 (configuration not stated)
[1]
  IC50: > 50.1 µM
[2]
  IC50: > 50.1 µM

## NCCCc1nc(-c2ccc(F)cc2)no1
[1]
  IC50: 186 µM
[2]
  IC50: 163 µM

## CCCn1ccc(NC(=O)c2cccc(C#N)c2)n1
[1]
  IC50: > 501 µM
[2]
  IC50: > 501 µM

## COc1ccc(C(O)CNC(=O)Nc2nncs2)cc1 (configuration not stated)
[1]
  IC50: 380 µM
[2]
  IC50: 195 µM

## CC(Nc1cccc(OC(F)(F)F)c1)C(=O)NC(N)=O (configuration not stated)
[1]
  IC50: > 501 µM
[2]
  IC50: 184 µM

## OC1CCN(Cc2cc(Cl)c3c(c2)OCCO3)CC1
[1]
  IC50: > 501 µM
[2]
  IC50: > 501 µM

## CCc1nnsc1C(=O)N1CCc2sccc2C1
[1]
  IC50: > 501 µM
[2]
  IC50: 176 µM

## Fc1ccc2nc(N3CCCNCC3)oc2c1F
[1]
  IC50: 122 µM
[2]
  IC50: 51.6 µM

## Cc1cccc(CN2C[C@@H](CN3CCCN(C)CC3)C[C@H](CO)C2)n1
[1]
  IC50: > 50.1 µM
[2]
  IC50: > 50.1 µM

## Cc1cccc(NCC(=O)NC2CCCCC2)n1
[1]
  IC50: 148 µM
[2]
  IC50: 152 µM

## CCc1ncc(CN(CCc2ccccc2)Cc2cccs2)cn1
[1]
  IC50: 9.25 µM
[2]
  IC50: 19.7 µM

## CN(Cc1cnn(C)c1)C(=O)c1cc(Br)c[nH]1
[1]
  IC50: > 501 µM
[2]
  IC50: 95.2 µM

## NC(=O)C1CCN(C(=O)COc2ccc(F)cc2Br)C1 (configuration not stated)
[1]
  IC50: > 501 µM
[2]
  IC50: > 501 µM

## Cc1cccc(C)c1NC(=O)CC(CN1CCN(C)CC1)C(=O)O (configuration not stated)
[1]
  IC50: > 50.1 µM
[2]
  IC50: 32.8 µM

## NS(=O)(=O)N1CCN(CC=Cc2ccc(F)cc2)CC1
[1]
  IC50: > 501 µM
[2]
  IC50: 233 µM

## CNCC(=O)Nc1cc(Cl)c(OCCOC)c(Cl)c1
[1]
  IC50: > 501 µM
[2]
  IC50: > 501 µM

## NC(=O)C(Sc1nncs1)c1ccc(Br)cc1 (configuration not stated)
[1]
  IC50: 266 µM
[2]
  IC50: 412 µM

## CCC(N)C(=O)Nc1ccc2c(c1)CCC2 (configuration not stated)
[1]
  IC50: 176 µM
[2]
  IC50: 170 µM

## CC(C)n1cnc(C2CN(C)c3ccc(C(=O)NCC4CC4)cc32)n1 (configuration not stated)
[1]
  IC50: > 50.1 µM
[2]
  IC50: > 50.1 µM

## N#Cc1cccnc1NC1CCN(c2ccccc2OC(F)F)C1=O (configuration not stated)
[1]
  IC50: 1.27 µM
[2]
  IC50: > 50.1 µM

## CCN1CCN(c2ccccc2O)CC1
[1]
  IC50: 189 µM
[2]
  IC50: 210 µM

## CC(=O)Nc1cccc(-c2ccccc2CCN)c1
[1]
  IC50: > 50.1 µM
[2]
  IC50: 49.7 µM

## Cc1cc(C(=O)NCC(O)c2ccccc2Cl)no1 (configuration not stated)
[1]
  IC50: > 501 µM
[2]
  IC50: 177 µM

## COc1cc(Oc2ccc(C(F)(F)F)cn2)ccc1CN1CCCC1
[1]
  IC50: 16.6 µM
[2]
  IC50: 13.9 µM

## CSc1cccc(CN(C)C(=O)CNC2CC2)c1
[1]
  IC50: > 501 µM
[2]
  IC50: 297 µM

## CCn1nc(C)c2nc(C)nc(NCCc3ccc(C)cc3)c21
[1]
  IC50: 42.5 µM
[2]
  IC50: 47.4 µM

## CNC(=O)NC(=O)C(C)Nc1cccc(C)c1 (configuration not stated)
[1]
  IC50: 190 µM
[2]
  IC50: 201 µM

## CC(C)(C)c1noc(CCC(=O)N2CCSCC2)n1
[1]
  IC50: > 501 µM
[2]
  IC50: > 501 µM

## COC(=O)CN(C)Cc1cc(Br)cs1
[1]
  IC50: > 50.1 µM
[2]
  IC50: > 50.1 µM

## CC(C)n1cc(Br)cc1C(=O)NC1=NCCS1
[1]
  IC50: > 501 µM
[2]
  IC50: 177 µM

## CC(Oc1ccc2c(c1)OCO2)C(=O)NC1CC1 (configuration not stated)
[1]
  IC50: > 501 µM
[2]
  IC50: > 501 µM

## Cc1cccc(-c2ccc(C(=O)NCCN3CCOCC3)c(=O)[nH]2)c1
[1]
  IC50: > 50.1 µM
[2]
  IC50: > 50.1 µM

## Cc1cccc(C(=O)NCC(C)N2CCCC2)n1 (configuration not stated)
[1]
  IC50: > 501 µM
[2]
  IC50: 306 µM

## COc1ccc(CCNc2ccc3nnnn3n2)cc1
[1]
  IC50: > 501 µM
[2]
  IC50: > 501 µM

## CN(Cc1ccc(Br)s1)CC(O)COCCO (configuration not stated)
[1]
  IC50: 165 µM
[2]
  IC50: 236 µM

## COCC1CCN(C(=O)c2cc(C3CC3)on2)CC1
[1]
  IC50: 26.5 µM
[2]
  IC50: > 501 µM

## Cc1cccc(C(=O)NCc2cccc(O)c2)n1
[1]
  IC50: 489 µM
[2]
  IC50: 172 µM

## O=C(NCc1ccc2c(c1)OCO2)N1CCCCC1
[1]
  IC50: 43.3 µM
[2]
  IC50: 139 µM

## NCCNS(=O)(=O)c1ccc(-c2ccccc2)cc1
[1]
  IC50: 171 µM
[2]
  IC50: 160 µM

## CCn1ccc(C(=O)N(C)Cc2cccnc2OC)n1
[1]
  IC50: 212 µM
[2]
  IC50: > 501 µM

## CC(Cn1cccn1)NCc1csc(-c2ccccc2F)n1 (configuration not stated)
[1]
  IC50: 4.59 µM
[2]
  IC50: 10.4 µM

## O=C1N(Cc2ccc(F)c(F)c2)CCCC12CCN(C1CCCCC1)C2 (configuration not stated)
[1]
  IC50: 26.3 µM
[2]
  IC50: 15.1 µM

## O=C1C=CC(=O)N1c1ccccc1OC(F)F
[1]
  IC50: 143 µM
[2]
  IC50: 109 µM

## NC1CCN(Cc2ccccc2F)CC1
[1]
  IC50: > 501 µM
[2]
  IC50: > 501 µM

## CCCn1nnc(NC(=O)c2ccccc2F)n1
[1]
  IC50: > 501 µM
[2]
  IC50: 59.9 µM

## NCC(NS(=O)(=O)CCc1cccs1)C1CC1 (configuration not stated)
[1]
  IC50: 47.8 µM
[2]
  IC50: 167 µM

## NCCc1cccc2cc[nH]c12
[1]
  IC50: 211 µM
[2]
  IC50: 177 µM

## O=C(NCC1COCCO1)c1cnc2ccccc2c1 (configuration not stated)
[1]
  IC50: > 501 µM
[2]
  IC50: > 501 µM

## CNC(=O)Nc1ccc(OC)c(OCCOC)c1
[1]
  IC50: 219 µM
[2]
  IC50: 138 µM

## CCOc1ccc(N2CCCN=C2NC(=O)c2ccc(Cl)cc2)cc1
[1]
  IC50: > 50.1 µM
[2]
  IC50: > 50.1 µM

## O=S1(=O)CCCN1CCNc1ncc(Cl)cc1Cl
[1]
  IC50: > 501 µM
[2]
  IC50: 111 µM

## COCc1nn(Cc2cccc3cccnc23)c(=O)o1
[1]
  IC50: 51.6 µM
[2]
  IC50: 16.8 µM

## Cc1cnn(CC2CCCN2c2ncnc3c2CCC3)c1 (configuration not stated)
[1]
  IC50: > 50.1 µM
[2]
  IC50: > 50.1 µM

## CC(C)(C)OC(=O)N1CCN(c2ccnc(N)c2)CC1
[1]
  IC50: > 501 µM
[2]
  IC50: > 501 µM

## CCCc1nc(C(=O)N2CC(c3ccncc3)C2)cs1
[1]
  IC50: 356 µM
[2]
  IC50: 326 µM

## CSc1ccc(C(CN)N(C)C)cc1 (configuration not stated)
[1]
  IC50: 319 µM
[2]
  IC50: 215 µM

## NC(=O)c1cc(S(=O)(=O)NCCc2ccccc2)cs1
[1]
  IC50: > 501 µM
[2]
  IC50: 247 µM

From ChEMBL document CHEMBL3988442, “University of Dundee, Small-Polar-MMV Screening Library” (2021)
